“Also recorded” adds a separate entry of the source. Read-outs that look alike come from different tables or passages of the source.
Experiments:
[1] = test system: spontaneous hypertensive rats; experiment: Tail blood pressure of 7-week-old spontaneous hypertensive rats after L- or D-arginine hydrochloride (Example 1); format: in vivo, rat
Procedure: (§1) Male spontaneous hypertensive rats and Wistar Kyoto rats were purchased from Charles River (Wilmington, Mass.) and were fed and housed under identical conditions for at least five days before use. The rats were caged in groups of three with food and water ad libitum under an artificial light-dark cycle of twelve hours.
(§2) L- and D-arginine hydrochloride were obtained from Aldrich (Milwaukee, Wis.). Forty-five-day-old spontaneous hypertensive rats were injected with L-arginine hydrochloride, 5, 16, 50, 80, 100 and 500 mg/kg body weight, or D-arginine-hydrochloride, 80 and 100 mg/kg body weight, intraperitoneally,in a final volume of 1.0 ml buffered saline for four consecutive days. The control spontaneous hypertensive rats and Wistar Kyoto rats were injected with saline. Forty-five day old Wistar Kyoto strain rats were injected with 50 mg/kg body weight of L-arginine hydrochloride for four days. Each group consisted of four or five experimental animals. Blood pressure from the tail was measured before the first injection and twenty-four hours after the last arginine administration. Blood pressure was measured with anesthesia, using a pletysmograph.
(§3) Results are expressed as the means ±SEM. A two-way analysis of variance was performed to compare blood values between control, L-arginine and D-arginine treated spontaneous hypertensive rats. Specific differences between groups were tested by the Newman-Keuls test. The null hypothesis was rejected when the p value was less than 0.05.
(§4) The blood pressure of 7-week-old spontaneous hypertensive rats and Wistar Kyoto rats was monitored before and after administration of L- and D-arginine. […] At a dose as low as 16 mg/kg body weight, L-arginine lowered blood pressure by 10 mm Hg […].

Wistar Kyoto rats = experiment: Tail blood pressure of age-matched Wistar Kyoto rats after L- or D-arginine hydrochloride (Example 1); format: in vivo, rat; conditions: for effect on blood pressure: age-matched normotensive Wistar Kyoto rats
Procedure: as §1, §2, §3, §4
For example, blood pressure of 7-week-old Wistar Kyoto rats remained unchanged following four days of treatment with L-arginine (50 mg/kg body weight), 122.3±1.3 mm Hg vs. 124.5±1.7 mm Hg for control and treated, respectively, n=3.

[2] = test system: spontaneous hypertensive rats; experiment: Systolic blood pressure in 7-week-old SHR, heme vs. arginine component and heme oxygenase inhibitor (Table 3); format: in vivo, rat; conditions: for reduction of blood pressure: "same dose (15 mg/kg body weight)", control increased by 7.7 mmHg; for Systolic blood pressure, after treatment: n=5, 4 days, heme-L-arginate = 15 mg hemin + 16 mg L-arginine per kg, hemin 15, L-arginine 16, ZnDPBG 7 mg/kg, 23 hours after last injection, *p<0.005 vs control 166.0±2.7; for Systolic blood pressure, after treatment / Systolic blood pressure, before treatment: ±SD; for Systolic blood pressure, before treatment: n=5, baseline
Procedure: Applicants further examined whether the effect is due to heme or to the arginine component of heme arginate. In separate experiments, applicants treated 7-week-old spontaneous hypertensive rats with heme-L-arginate, hemin alone and L-arginine alone at the same dose (15 mg/kg body weight). […] At the same period, blood pressure in control spontaneous hypertensive rats increased by 7.7 mmHg.
Systolic blood pressure was measured by tail cuff pletysmograph before and 23 hours after the last injection. Results are the same ±SD, n=5 in each group; significance from control spontaneous hypertensive rats after 4 days of treatment with the vehicle (166.0±2.7), *p<0.005.

anesthetized rabbit = conditions: cited from earlier work
[3] = test system: spontaneous hypertensive rats; conditions: young SHR; cited from earlier work
renal cytochrome P-450 = conditions: in vivo; cited from earlier work

For `N=C(N)NCCC[C@@H](N)C(=O)O` [D-arginine], the “effect on blood pressure” value ([1]; 80 and 100 mg/kg body weight, four days, 7-week-old SHR) was “did not effect the blood pressure; also recorded: had no effect on blood pressure”, the “effect on blood pressure” value ([1]; concentrations lower than 80 mg/kg body weight, SHR) was “did not alter blood pressure” and the “effect on blood pressure” value (Wistar Kyoto rats) was “Neither L-arginine nor D-arginine had any effect on blood pressure”.

With `N=C(N)NCCC[C@H](N)C(=O)O` [L-arginine, 2-amino-5-guanidinovaleric acid] the “decrease in blood pressure” value ([1]; 16 mg/kg body weight i.p., four consecutive days, 7-week-old SHR) was 10 mm Hg, the “maximal effect, decrease in blood pressure” value ([1]; 100 mg/kg body weight (maximal dose) i.p., four days, 7-week-old SHR) was 30 mm Hg and the “effect on blood pressure” value ([1]; 5-500 mg/kg i.p., four days, 7-week-old SHR) was “dose-dependent decrease in blood pressure”. For the same molecule, the “overall reduction of blood pressure” value ([1]; at the maximal dose, young SHR) was 20%, the “effect on blood pressure of higher doses” value ([1]; doses higher than 100 mg/kg, 7-week-old SHR) was “did not lower blood pressure further” and the “blood pressure, treated” value (Wistar Kyoto rats; 50 mg/kg body weight, four days, 7-week-old WKY, n=3, ±SEM, control 122.3±1.3) was 124.5±1.7 mm Hg. For the same molecule, the “effect on blood pressure” value (Wistar Kyoto rats) was “Neither L-arginine nor D-arginine had any effect on blood pressure; also recorded: no effect was documented in normotensive rats”, the “reduction of blood pressure” value [2] was 9.7 mmHg and the “Systolic blood pressure, after treatment” value [2] was 144.4 ± 3.0 mmHg. The “Systolic blood pressure, before treatment” value [2] was 154.1 ± 4.5 mmHg and the “effect on the inhibition of N-monomethyl-L-arginine” value (anesthetized rabbit; L-arginine administration) was “abolished the inhibition of N-monomethyl-L-arginine within fifteen minutes”.

In the case of `CN=C(N)NCCC[C@H](N)C(=O)O` [N-monomethyl-L-arginine], the “effect on mean arterial blood pressure” value (anesthetized rabbit) is given as “dose-dependent increase in mean arterial blood pressure”.

In the case of `[Cl][Sn][Cl]` [SnCl2], the “effect on blood pressure” value [3] is given as “marked decrease in blood pressure” and the “effect on renal cytochrome P-450” value (renal cytochrome P-450) is given as “depletion of renal cytochrome P-450”.

With Hemin the “reduction of blood pressure” value [2] was 14.3 mmHg, the “Systolic blood pressure, after treatment” value [2] was 142.2 ± 2.4 mmHg and the “Systolic blood pressure, before treatment” value [2] was 156.5 ± 3.3 mmHg.

In the case of “Zn-2,4-deuteropophyrin IX bis glycol [ZnDPBG]”, the “effect on blood pressure” value ([2]; inhibitor alone) is reported as “did not have any effect on blood pressure”, the “Systolic blood pressure, after treatment” value [2] is reported as 169.1 ± 2.5 mmHg and the “Systolic blood pressure, before treatment” value [2] is reported as 154.0 ± 4.0 mmHg.
